Data reported in ChEMBL document CHEMBL1129163, “Nucleosides and nucleotides. 155. synthesis, antitumor effects, and possible enzymatic activation mechanism of 5-phosphatidyl-2-deoxy-2-methylenecytidine (DMDC)” (1996).

Assays:
Mus musculus [1] = assay: Compound was evaluated for the antitumor activity against i.p.-implanted L1210 leukemia in mice for a dose of 0.125 mM/kg/day given orally on days 1-5.; assay type: functional
Mus musculus [2] = assay: Compound was evaluated for the antitumor activity against i.p.-implanted M5076 sarcoma by measuring 60 day survivor in four mice a dose of 0.125 mM/kg/day given orally on days 1-5.; assay type: functional
Mus musculus [3] = assay: Compound was evaluated for the antitumor activity against i.p.-implanted M5076 sarcoma in mice for a dose of 0.125 mM/kg/day on days 1-5.; assay type: functional
Mus musculus [4] = assay: Compound was evaluated for the antitumor activity against i.p.-implanted M5076 sarcoma in mice for a dose of 0.40 mM/kg/day given intraperitoneally on days 1-5.; assay type: functional
Mus musculus [5] = assay: Compound was evaluated for the antitumor activity against i.p.-implanted M5076 sarcoma by measuring 60 day survivor in four mice at a dose of 0.40 mM/kg/day given orally on days 1-5.; assay type: functional
Mus musculus [6] = assay: Compound was evaluated for the antitumor activity against i.p.-implanted M5076 sarcoma by measuring 60 day survivor in four mice a dose of 0.40 mM/kg/day given orally on days 1-5.; assay type: functional
Mus musculus [7] = assay: Compound was evaluated for the antitumor activity against i.p.-implanted M5076 sarcoma in four mice for a dose of 0.40 mM/kg/day given intraperitoneally on days 1-5; Toxic; assay type: functional, organism-based

Structure (SMILES)	ILS (Mus musculus [1]) [%]	Survivors (Mus musculus [2])	ILS (Mus musculus [3]) [%]	ILS (Mus musculus [4]) [%]	Survivors (Mus musculus [5])	Survivors (Mus musculus [6])	ILS (Mus musculus [7])
C=C1[C@H](n2ccc(N)nc2=O)O[C@H](COP(=O)([O-])OC[C@@H](COC(=O)CCCCCCCCCCCCCCC)OC(=O)CCCCCCCCCCCCCCC)[C@H]1O.[Na+]	64	1	121	>179	4	–	–
C=C1C(n2ccc(N)nc2=O)O[C@H](CO)[C@@H]1O (some centres undefined)	68	0	44	116	–	0	–
C=C1[C@H](n2cc(F)c(N)nc2=O)O[C@H](COP(=O)([O-])OC[C@H](COC(=O)CCCCCCCCCCCCCCC)OC(=O)CCCCCCCCCCCCCCC)[C@H]1O.[Na+]	96	3	>179	–	–	–	Toxic
